# Experimental data: patent publication US12098433B2 (priority 2018, dated 2024)
# “Also recorded” adds a separate entry of the source. Read-outs that look alike come from different tables or passages of the source.
# Key:
# [1] = test system: AtzR transcription factor; experiment: Cell-free cyanuric acid sensor: AtzR-regulated sfGFP reporter; format: biochemical, Pseudomonas sp. ADP-1; conditions: for fold-induction of sfGFP: 100 μM
# [2] = test system: AtzR transcription factor; experiment: Cell-free cyanuric acid sensor with colorimetric catechol 2,3-dioxygenase reporter; format: biochemical, Pseudomonas sp. ADP-1; conditions: 600 μM CYA in ON state; tubes with catechol at 30° C.
# Method: FIG. 18. Proof-of-concept for field-deployable cyanuric acid sensing using a cell-free biosensor. (a) Optimized cell-free reactions are prepared without cyanuric acid (CYA), freeze-dried, and then rehydrated with unfiltered environmental water samples. (b) CYA in environmental water samples can be detected from freeze-dried cell-free reactions. […] (c) Time course comparisons of the OFF state from panel B, for the unfiltered environmental water samples that were not spiked with CYA. Pool water can be distinguished against lake water in less than one hour. […] CYA was added at a concentration of 600 μM in the ON state to a fresh cell-free reaction incubated at 30° C. and monitored for 90 minutes. […] Fluorescence in b and c is reported standardized to mean equivalent fluorescence (MEF) of fluorescein isothiocyanate based on a previously developed standard.
# Finally, we aimed to validate if a visible output signal for the sensor could be generated without a plate reader to enable equipment-free detection of CYA from environmental samples. […] Because fluorescence of sfGFP is difficult to detect by the unaided eye, particularly in the early stages of the reaction, we replaced the coding sequence of the reporter plasmid instead with the enzyme catechol 2,3-dioxygenase (C23DO). […]
# [3] = test system: atzR (via atzABC conversion of atrazine to cyanuric acid); format: biochemical, E. coli extracts; Pseudomonas ADP-1 pathway; conditions: for sensor response to triazines (specificity): FIG. 19C; for time at which ON is distinguished from OFF (kinetic divergence): 100 μM atrazine
# [4] = test system: unregulated cell-free protein synthesis reaction (cell-free transcription and translation); format: biochemical, E. coli
# [5] = test system: NarX / NarL two-component system
# [6] = test system: NarX / NarL two-component system; conditions: colorimetric C32O reporter
# [7] = test system: atzR (via atzABC conversion of atrazine to cyanuric acid); experiment: Colorimetric atrazine sensor (C23O reporter), freeze-dried reactions; format: biochemical, E. coli extracts; Pseudomonas ADP-1 pathway
smiles,measurement,setting,value
O=c1[nH]c(=O)[nH]c(=O)[nH]1 [cyanuric acid],fold-induction of sfGFP,"[1]; optimal 1 nM AtzR plasmid and 10 nM reporter plasmid, 4-hour incubation",> 12 fold
same,fold-induction of sfGFP,"[1]; reporter based on Promoter P2 (E. coli consensus −10 site), promoter screen",~8 fold
same,linear operating range of dose-response,[1]; optimal plasmid concentrations,0 to 100 µM
same,time to production of yellow color (reporter activation),[2],≤ 1 h
same,sensor response to triazines (specificity),[3],capable of detecting
Nc1nc(N)nc(N)n1 [melamine],poisoning / inhibitory effect on cell-free protein synthesis (sfGFP),[4]; 100 μM,Minimal poisoning
same,sensor response to triazines (specificity),[3],unreactive
O=[N+]([O-])O [nitrate],sensor activation,"[5]; 1 mM nitrate, absence of supplemental NarX",activated
same,detection by sensor,"[5]; 1 mM nitrate, certain ratios of NarX- and NarL-enriched extracts",robust detection
same,sensitivity of cell-free system,"[5]; optimal conditions, sfGFP reporter",more sensitive than the environmental limit
same,"lowest concentration detected, visible by naked eye",[6],10 µM
CCNc1nc(Cl)nc(NC(C)C)n1 [atrazine],poisoning / inhibitory effect on cell-free protein synthesis (sfGFP),[4]; 100 μM,Minimal poisoning
same,reactions changing color,"[7]; 100 nM atrazine, three replicates, four-hour limit",one of the three reactions
same,limit of detection for the enzymatic reporter,"[7]; freeze-dried, all three replicates turned on within four-hour limit",1
same,calculated limit of detection above background,[3],approximately 20 μM
same,time at which ON is distinguished from OFF (kinetic divergence),[3]; optimized sensor,approximately one hour
same,time at which ON is distinguished from OFF (kinetic divergence),"[3]; optimized sensor, listed as Atrazine",within one hour
same,sensor response to triazines (specificity),[3],capable of detecting
same,detection by sensor,"[3]; doped at 100 μM, all enriched extracts plus blank extract",could detect
same,overall limit of detection (figure legend),"[3]; optimized sensor, dose-response curve FIG. 22E",around 20
same,EC50,[3]; read-out: half-maximal signal,~66 µM
CC(C)Nc1nc(Cl)nc(NC(C)C)n1 [propazine],poisoning / inhibitory effect on cell-free protein synthesis (sfGFP),[4],Minimal poisoning
same,sensor response to triazines (specificity),[3],weak activation; also recorded: capable of detecting
